This experiment relates to Plasmodium berghei. The experiment is described as follows: Luciferase/luciferin-expressing antifolate-resistant parasites were used to infect a culture of HepG2 cells that were pre-incubated with compounds. Infected hepatocytes emit light due to the luciferase reaction. Assay results are presented as the percent inhibition of light emission compared to control. […]. In kind it is functional. The conditions noted are these: sporozoite; for IC90: read-out: LUCIFERASE INFECTION ASSAY - IC90.

[1] abbreviates: read-out: LUCIFERASE INFECTION ASSAY - IC50.

pIC50: −log10 of the molar value. A value given as a limit tells only on which side of the number the result lay.

As to `C=CCNc1nc(C(=O)OCc2cc(=O)n3cc(Br)ccc3n2)cs1`, the IC90 – broadly, the concentration at which the effect reaches the 90% level – is more than 10 µM. The pIC50 (as a rule, the negative decadic logarithm of the IC50, by convention in mol/L) under setting [1] was less than 5.00.
Take `O=C(Nc1ccc2c(c1)OCO2)c1cnc(N2CCN(CCc3ccccc3)C2=O)o1`: the IC90 was more than 10 µM. In addition, the pIC50 (HEPG2TOX_HILL_SLOPE 7.5, HEPG2TOX_R_SQUARED 0.498, PBLUC_HILL_SLOPE 1.96, PBLUC_R_SQUARED 0.361, read-out: LUCIFERASE INFECTION ASSAY - IC50) is 5.44.
As to `COc1ccccc1CN1C(=O)C=CC1=O`, the IC90 was more than 15.2 µM. In addition, the pIC50 (HEPG2TOX_HILL_SLOPE 11.1, HEPG2TOX_R_SQUARED 0.957, PBLUC_HILL_SLOPE 12.9, PBLUC_R_SQUARED 0.465, read-out: LUCIFERASE INFECTION ASSAY - IC50) was 4.86.
In the case of `CCn1ncc2c(C(=O)Nc3nc(-c4ccc(OC)cc4OC)cs3)cc(-c3cccs3)nc21`, the IC90 was more than 10 µM. Also, the pIC50 under setting [1] was less than 5.00.
Regarding `Cc1cc(=O)n2nc(CSc3nc4ccc(Cl)cc4c(=O)n3CC(C)C)sc2n1`, the IC90 turned out to be 4.07 µM. Further, the pIC50 (PBLUC_HILL_SLOPE 10, PBLUC_R_SQUARED 0.71, read-out: LUCIFERASE INFECTION ASSAY - IC50) is 5.49.
As to `O=C(NC1CCCC1)c1ccc(-c2cn3c(-c4ccc(CO)cc4)cnc3cn2)cc1`, the IC90 is 7.79 µM. Besides, the pIC50 (PBLUC_HILL_SLOPE 20, PBLUC_R_SQUARED 0.468, read-out: LUCIFERASE INFECTION ASSAY - IC50) is 5.16.
Turning to `Cc1ccc(N2C(=O)/C(=C/c3ccc(C(C)C)cc3)N=C2SCC(=O)C23CC4CC(CC(C4)C2)C3)cc1`, the IC90 was more than 10 µM. Moreover, where the note is “FFLUC_HILL_SLOPE 28, FFLUC_R_SQUARED 0.571, PBLUC_HILL_SLOPE 16, PBLUC_R_SQUARED 0.0407, read-out: LUCIFERASE INFECTION ASSAY - IC50”, the pIC50 is 5.00.
`CN1CCN(c2ccc(-c3cn4c(-c5cccc(N(C)C)c5)cnc4cn3)cn2)CC1`: the IC90 is more than 7.98 µM. The pIC50 (PBLUC_HILL_SLOPE 2.11, PBLUC_R_SQUARED 0.385, read-out: LUCIFERASE INFECTION ASSAY - IC50) is 5.21.
`OC[C@H]1O[C@@H](c2nc(-c3ccc4c(c3)CCO4)no2)[C@H](O)[C@@H]1O`: the concentration for an effect of 90% (IC90) is more than 10.3 µM. The pIC50 under setting [1] was less than 4.99.
With `CCOc1ccc(S(=O)(=O)CC2=NCCc3cc(OC)c(OC)cc32)cc1`, the IC90 worked out at 5.39 µM. In addition, for the setting “HEPG2TOX_HILL_SLOPE 1.55, HEPG2TOX_R_SQUARED 0.854, PBLUC_HILL_SLOPE 1.98, PBLUC_R_SQUARED 0.428, read-out: LUCIFERASE INFECTION ASSAY - IC50”, the pIC50 was 5.75.
For `O=C1OCCC1Sc1nc(-c2ccccc2)c(-c2ccccc2)o1` (centres undefined), the IC90 is more than 9.78 µM. In addition, the pIC50 (PBLUC_HILL_SLOPE 0.774, PBLUC_R_SQUARED 0.522, read-out: LUCIFERASE INFECTION ASSAY - IC50) was 5.38.
In the case of `O=C(Nc1ccccc1)Nc1nnc(C(F)(F)F)s1`, the IC90 is 1.07 µM. In addition, where the note is “HEPG2TOX_HILL_SLOPE 2.53, HEPG2TOX_R_SQUARED 0.953, PBLUC_HILL_SLOPE 4.44, PBLUC_R_SQUARED 0.774, read-out: LUCIFERASE INFECTION ASSAY - IC50”, the pIC50 is 6.19.
As for `O=C(NC1CCCC1)c1ccc(-c2cn3c(-c4ccc(C(=O)NC5CC5)cc4)cnc3cn2)cc1`, the IC90 was more than 7.09 µM. In addition, the pIC50 (PBLUC_HILL_SLOPE 2.95, PBLUC_R_SQUARED 0.52, read-out: LUCIFERASE INFECTION ASSAY - IC50) is 5.31.
As to `Cc1n[nH]c(C(=O)NCc2ccc(OC(C)C)cc2)c1Br`, the IC90 is more than 10 µM. Moreover, under “PBLUC_HILL_SLOPE 12.5, PBLUC_R_SQUARED 0.288, read-out: LUCIFERASE INFECTION ASSAY - IC50”, the pIC50 was 5.05.
For the compound `Clc1ccc2[nH]cc(CCNc3nc(Cl)nc4nc[nH]c34)c2c1`, the IC90 came out at 0.6 µM. Moreover, the pIC50 (HEPG2TOX_HILL_SLOPE 2.4, HEPG2TOX_R_SQUARED 0.982, PBLUC_HILL_SLOPE 2.19, PBLUC_R_SQUARED 0.753, read-out: LUCIFERASE INFECTION ASSAY - IC50) is 6.66.
As to `COc1cn(-c2ccccc2)nc1C(=O)N1CCc2ccccc21`, the IC90 worked out at 0.243 µM. The pIC50 (HEPG2TOX_HILL_SLOPE 1.58, HEPG2TOX_R_SQUARED 0.907, PBLUC_HILL_SLOPE 2.39, PBLUC_R_SQUARED 0.888, read-out: LUCIFERASE INFECTION ASSAY - IC50) was 7.01.
On to `O=C(Nc1ccc(F)cc1)c1csc(C(O)c2cccc(Cl)c2)n1` (centres undefined), for which the IC90 is more than 10 µM. Moreover, the pIC50 under setting [1] was less than 5.00.
On the same counts, the results for `O=C(O)c1ccc(CN2C(=O)CCC2=O)cc1` are more than 10 µM and less than 5.00.
Consider `Cc1ccc(C)c(NC(=S)[C-](C(=O)c2ccc3c(c2)OCCO3)[n+]2ccccc2)c1`, for which the IC90 was more than 10 µM. Moreover, the pIC50 (PBLUC_HILL_SLOPE 1.61, PBLUC_R_SQUARED 0.831, read-out: LUCIFERASE INFECTION ASSAY - IC50) is 5.27.
`CC(C)c1cc(Cl)n2ncc(-c3ccccc3)c2n1`: the IC90 was more than 12.1 µM. Where the note is “PBLUC_HILL_SLOPE 1.33, PBLUC_R_SQUARED 0.849, read-out: LUCIFERASE INFECTION ASSAY - IC50”, the pIC50 is 5.34.
Take `Cn1ccc2cc(-c3cnc4cnc(-c5ccc(N)nc5)cn34)ccc21`: the IC90 came to 5.78 µM. The pIC50 (HEPG2TOX_HILL_SLOPE 1.74, HEPG2TOX_R_SQUARED 0.96, PBLUC_HILL_SLOPE 2.26, PBLUC_R_SQUARED 0.858, read-out: LUCIFERASE INFECTION ASSAY - IC50) was 5.66.
In the case of `CCCCCCCCCCCCSC(=S)c1c(C)[nH]n(-c2ccccc2)c1=O`, the 90% effect concentration (IC90) was more than 7.88 µM. The pIC50 under setting [1] is less than 5.10.
Regarding `Clc1cncc(Cl)c1N1CCN(c2ccc(-c3cccnc3)cn2)CC1`, the IC90 is more than 8.54 µM. Besides, the pIC50 under setting [1] is 6.00.
Consider `Cc1nc2ncnn2c(C)c1CC(=O)NCCCSc1ccc(F)cc1`, for which the IC90 was more than 10 µM. Moreover, under setting [1], the pIC50 is less than 5.00.
In the case of `CCc1cccc2c(C(=O)COC(=O)c3ccc(S(C)(=O)=O)c([N+](=O)[O-])c3)c[nH]c12`, the IC90 is 6.57 µM. Besides, the pIC50 (FFLUC_HILL_SLOPE 0.275, FFLUC_R_SQUARED 0.382, HEPG2TOX_HILL_SLOPE 0.775, HEPG2TOX_R_SQUARED 0.837, PBLUC_HILL_SLOPE 46.1, PBLUC_R_SQUARED 0.262, read-out: LUCIFERASE INFECTION ASSAY - IC50) was 5.20.
With `COC(=O)c1ccc(=O)n(CC(=O)Nc2ccc(C(C)(C)C)cc2)c1`, the IC90 was more than 10 µM. Also, the pIC50 (PBLUC_HILL_SLOPE 11, PBLUC_R_SQUARED 0.594, read-out: LUCIFERASE INFECTION ASSAY - IC50) was 5.04.
Turning to `Oc1ccc(Nc2nccc3[nH]c(-c4cccc(F)c4)cc23)cc1`, the IC90 was 8.12 µM. For the same compound, the pIC50 (PBLUC_HILL_SLOPE 3.41, PBLUC_R_SQUARED 0.615, read-out: LUCIFERASE INFECTION ASSAY - IC50) is 5.37.
Regarding `CN(Cc1ccc(Cl)cc1Cl)C(=O)NCc1ccc(S(=O)(=O)N2CCCCC2)cc1`, the IC90 is more than 10 µM. In addition, the pIC50 (PBLUC_HILL_SLOPE 15.3, PBLUC_R_SQUARED 0.472, read-out: LUCIFERASE INFECTION ASSAY - IC50) is 5.03.
Regarding `CC(C)COc1ccc(NC(=O)c2ccnn2C)cc1Cl`, the IC90 is more than 10 µM. Moreover, the pIC50 (PBLUC_HILL_SLOPE 14.7, PBLUC_R_SQUARED 0.488, read-out: LUCIFERASE INFECTION ASSAY - IC50) is 5.04.
Regarding `O=C(COC(=O)C1(c2ccccc2F)CCCC1)NC1CCCCCCC1`, the IC90 was more than 10 µM. The pIC50 (PBLUC_HILL_SLOPE 12.1, PBLUC_R_SQUARED 0.29, read-out: LUCIFERASE INFECTION ASSAY - IC50) is less than 5.00.
Take `C=CCn1c(SCC(=O)c2cc(C)n(-c3ccc(OC)cc3)c2C)nc2sc(-c3ccccc3)cc2c1=O`: the IC90 is more than 10 µM. Further, the pIC50 under setting [1] is less than 5.00.
Regarding `COc1cccc(-c2ccc3ncc(-c4ccc(NC(C)=O)cc4)n3n2)c1`, the IC90 was found to be 3.39 µM. In addition, the pIC50 (HEPG2TOX_HILL_SLOPE 0.992, HEPG2TOX_R_SQUARED 0.946, PBLUC_HILL_SLOPE 0.779, PBLUC_R_SQUARED 0.716, read-out: LUCIFERASE INFECTION ASSAY - IC50) is 6.69.
As to `Cc1cc(OCC(=O)N(C)Cc2nc3ccsc3c(=O)[nH]2)ccc1C(C)C`, the IC90 was more than 10 µM. Besides, under setting [1], the pIC50 is less than 5.00.
`CCn1c(-c2ccccc2)c(C(=O)COc2ccc(Cl)c(C)c2)c2ccccc21`: the IC90 is more than 10 µM. For the same compound, the pIC50 (HEPG2TOX_HILL_SLOPE 7.06, HEPG2TOX_R_SQUARED 0.488, PBLUC_HILL_SLOPE 0.342, PBLUC_R_SQUARED 0.631, read-out: LUCIFERASE INFECTION ASSAY - IC50) was 6.45.
Turning to `COc1cc(CCC2CCN(CC(=O)c3c(N)n(C)c(=O)n(C)c3=O)CC2)cc(OC)c1`, the IC90 was more than 10 µM. Besides, under “PBLUC_HILL_SLOPE 1.27, PBLUC_R_SQUARED 0.409, read-out: LUCIFERASE INFECTION ASSAY - IC50”, the pIC50 was 5.29.
As for `CNc1nc2cnc(Nc3cccc(F)c3)cc2n1-c1cccc(C(F)(F)F)c1`, the IC90 was more than 10 µM. In addition, the pIC50 (FFLUC_HILL_SLOPE 8.44, FFLUC_R_SQUARED 0.0352, read-out: LUCIFERASE INFECTION ASSAY - IC50) was less than 5.00.
On to `Cc1cccc(C(=O)OC(C)C(=O)Nc2sccc2C#N)c1N` (centres undefined), for which the IC90 is more than 10 µM. Also, the pIC50 (PBLUC_HILL_SLOPE 38.2, PBLUC_R_SQUARED 0.283, read-out: LUCIFERASE INFECTION ASSAY - IC50) was 5.00.
